The subject of assay [1] is methicillin-resistant Staphylococcus aureus (MRSA). The assay can be described thus: Agar dilution MIC. A general note: Agar dilution tests growth on a series of plates holding different concentrations.
The next assay addresses E. coli RNAP βR143A (Escherichia coli, UniProt P0A8V2, R143A). Type of assay: biochemical. The conditions noted are these: βR143A RNAP against wild-type RNAP.
A further assay concerns the target E. coli RNAP βH526R (Escherichia coli, UniProt P0A8V2, H526R). Type of assay: biochemical. The note with it: at 2.5 mg/mL; mutation at βH526.
A further assay concerns the target wild-type E. coli RNAP (Escherichia coli, UniProt P0A8V2). The assay can be described thus: In vitro transcription on T7A1 promoter template. Type of assay: biochemical. The note with it: transcription started with ATP, in the absence of the CpA primer.
Another assay has as its target M. smegmatis RNAP (Mycolicibacterium smegmatis, UniProt P60281). The assay can be described thus: In vitro transcription on T7A1 promoter template. Format: biochemical. The note with it: performed as with E. coli RNAP, started with ATP.
Another assay has as its target E. coli RNAP βH526Y (Escherichia coli, UniProt P0A8V2, H526Y). Format: biochemical. The note with it: at 2.5 mg/mL; mutation at βH526.
The next assay addresses E. coli RNAP βH526P (Escherichia coli, UniProt P0A8V2, H526P). Format: biochemical. The note with it: at 2.5 mg/mL; mutation at βH526.

≈ marks a conversion by molar mass, not a printed value. Some results are limits rather than exact numbers.

For `CO[C@H]1/C=C/O[C@@]2(C)Oc3c(C)c(O)c4c(O)c(c(/C=N/N5CCN(C)CC5)c(O)c4c3C2=O)NC(=O)/C(C)=C\C=C\[C@H](C)[C@H](O)[C@@H](C)[C@@H](O)[C@@H](C)[C@H](OC(C)=O)[C@@H]1C` [RIF, rifampicin], the minimal inhibitory concentration (MIC) (as a rule, the smallest concentration in the dilution series that meets the test's criterion for growth inhibition) was 2 µg/mL (≈ 2.43 µM) in assay [1] (S. aureus Bel 97597), more than 128 µg/mL in assay [1] (S. aureus Bel 97598), more than 128 µg/mL in assay [1] (S. aureus Fin 54511) and more than 128 µg/mL in assay [1] (S. aureus Fin 54518). Further, the “effect of the βR143A mutation on sensitivity” value at E. coli RNAP βR143A is given as “little effect”. Further, the “inhibition of RNAP” value at E. coli RNAP βH526R, against E. coli RNAP βH526Y and at E. coli RNAP βH526P was “no inhibition” in each case. In addition, the “formation of the triphosphorylated trinucleotide, pppApUpC” value on wild-type E. coli RNAP is “allowed some of its production”. Besides, on wild-type E. coli RNAP, the “inhibition of formation of the first dinucleotide, pppApU” value is 3 fold. The “synthesis of the trinucleotide (pppApUpC)” value at M. smegmatis RNAP is “partly allowed”.

For the origin of these results see article PMC6202310 (Molecular Cell, 2018).
